Where two headings read alike, the source gives them in different places.
Assays:
[1] = test system: oral malodor and periodontal disease; conditions: human, in vivo
Method: (§1) Tongue base, tongue dorsum, and proximal areas of the dentition were evaluated for odors. Biofilm samples from these areas were taken from each patient. A Gram stain analysis provided morphological information on the microorganisms present in the oral cavity. In addition, the microbiology of the teeth and tongue was tested with a BANA strip for red complex clusters. Six-point periodontal probing was used to assess pocket depth and bleeding points.
(§2) Treatment initially consisted of rinsing with chlorhexidine 0.2% for 2 weeks, twice daily.
(§3) The treatment chosen was the metronidazole-nystatin rinse prepared as described in Example 3. Three times a day, patients dispensed a “capful” (2 ml) of this mixture, swished and gargled for 30 seconds, and expectorated the contents. Once per day, they flossed immediately after rinsing. After each rinse with antibiotic mixture, patients were to abstain from eating or drinking for 30 minutes. After 2 weeks of rinsing, patients returned to the clinic for an evaluation of treatment. Breath odor measurements and periodontal measurements were repeated, and compared with those taken at the initial appointment. Microbiology samples of the tongue base, tongue dorsum, and teeth were taken, analyzed, and compared with the pre-treatment samples. Patients were then placed on chlorhexidine 0.2% for 2 more weeks, followed by routine rinsing with non-prescription mouthwashes that the patient selected.

Solubility in water = format: physicochemical
Method: A metronidazole-nystatin mixture was prepared for use as an oral rinse to treat halitosis, gingivitis, tonsillitis, and/or mild to moderate periodontal disease. Tablets of metronidazole (APO-Metronidazole™, Apotex Corp.) were crushed and grounded, the larger particles filtered out, and the fine particles mixed with nystatin suspension or nystatin powder (Nilstat™, Alimed or PMS PharmaScience) in distilled water.

[2] = test system: Aggregatibacter actinomycetemcomitans; conditions: general statement, no test described; cited from earlier work
[3] = test system: oral malodor and periodontal disease; test: Clinical study of antibiotic antifungal rinse in patients with halitosis
Method: as §1, §2, §3

Cc1ncc([N+](=O)[O-])n1CCO [metronidazole]
side effects [1]: systemic side effects | solubility in water (Solubility in water): sparingly soluble or practically insoluble | Aggregatibacter actinomycetemcomitans responds (share of the time) [2]: about 50 % of the time

C[C@@H]1[C@H](O)[C@@H](C)/C=C/C=C/CC/C=C/C=C/C=C/C=C/C(O[C@H]2O[C@H](C)[C@@H](O)[C@H](N)[C@@H]2O)CC2O[C@](O)(CC(O)C(O)CCC(O)CC(O)CC(O)CC(=O)O[C@H]1C)CC(O)C2C(=O)O (stereo partly shown) [nystatin]
solubility in water (Solubility in water; water, form a suspension or dispersion): sparingly soluble or practically insoluble

[H]/N=C(\N/C(=N/[H])NCCCCCCNC(=N)NC(=N)Nc1ccc(Cl)cc1)Nc1ccc(Cl)cc1 [chlorhexidine]
reduction of oral malodor ([3]; chlorhexidine 0.2% rinse alone, 2 weeks, twice daily): insufficient to completely reduce oral malodor

CC1(C)S[C@@H]2[C@H](NC(=O)[C@H](N)c3ccc(O)cc3)C(=O)N2[C@H]1C(=O)O [amoxicillin]
response of Aggregatibacter actinomycetemcomitans [2]: responds best

CCC[C@@H]1C[C@@H](C(=O)N[C@@H]([C@H]2O[C@H](SC)[C@H](O)[C@@H](O)[C@H]2O)[C@H](C)Cl)N(C)C1 [clindamycin]
side effects ([3]; systemic metronidazole and clindamycin, followed by 0.2% chlorhexidine): systemic side effects
